From US20150218212A1, “FLUORINATED EPOXYKETONE-BASED TETRAPEPTIDE COMPOUNDS AND USES THEREOF AS PROTEASOME INHIBITORS” (FLUORINOV PHARMA INC., priority 2012, published 2015)

Columns and labels:
Type in all cases: cell-based, human
[1] = system: HL-60(TB); experiment: NCI screening panel, HL-60(TB) (Leukemia)
Description: (§1) Representative compounds of Formula I were screened using the National Cancer Institute (NCI) screening panel, which consists of a panel of human tumor cell lines, representing leukemia, melanoma, and cancers of the lung, colon, ovary, breast, prostate and renal system.
(§2) After 24 h, two plates of each cell line are fixed in situ with TCA, to represent a measurement of the cell population for each cell line at the time of drug addition (Tz). Experimental drugs are solubilised in dimethyl sulfoxide at 400-fold the desired final maximum test concentration and stored frozen prior to use. At the time of drug addition, an aliquot of frozen concentrate is thawed and diluted to twice the desired final maximum test concentration with complete medium containing 50 μg/mL gentamicin. Additional four, 10-fold or ½ log serial dilutions are made to provide a total of five drug concentrations plus control. Aliquots of 100 μl of these different drug dilutions are added to the appropriate microtiter wells already containing 100 μl of medium, resulting in the required final drug concentrations.
(§3) Following drug addition, the plates are incubated for an additional 48 h at 37° C., 5% CO2, 95% air, and 100% relative humidity. For adherent cells, the assay is terminated by the addition of cold TCA (trichloroacetic acid). Cells are fixed in situ by the gentle addition of 50 μl of cold 50% (w/v) TCA (final concentration, 10% TCA) and incubated for 60 minutes at 4° C. The supernatant is discarded, and the plates are washed five times with tap water and air dried. Sulforhodamine B (SRB) solution (100 μl) at 0.4% (w/v) in 1% acetic acid is added to each well, and plates are incubated for 10 minutes at room temperature. After staining, unbound dye is removed by washing five times with 1% acetic acid and the plates are air dried. Bound stain is subsequently solubilised with 10 mM trizma base, and the absorbance is read on an automated plate reader at a wavelength of 515 nm. For suspension cells, the methodology is the same except that the assay is terminated by fixing settled cells at the bottom of the wells by gently adding 50 μl of 80% TCA (final concentration, 16% TCA). Using the seven absorbance measurements [time zero, (Tz), control growth, (C), and test growth in the presence of drug at the five concentration levels (Ti)], the percentage growth is calculated at each of the drug concentrations levels. Percentage growth inhibition is calculated as: [(Ti−Tz)/(C−Tz)]×100 for concentrations for which Ti>/=Tz and [(Ti−Tz)/Tz]×100 for concentrations for which Ti<Tz.
(§4) Three dose response parameters are calculated for each experimental agent. Growth inhibition of 50% (GI50) is calculated from [(Ti−Tz)/(C−Tz)]×100=50, which is the drug concentration resulting in a 50% reduction in the net protein increase (as measured by SRB staining) in control cells during the drug incubation. The drug concentration resulting in total growth inhibition (TGI) is calculated from Ti=Tz. The LC50 (concentration of drug resulting in a 50% reduction in the measured protein at the end of the drug treatment as compared to that at the beginning) indicating a net loss of cells following treatment is calculated from [(Ti−Tz)/Tz]×100=−50. Values are calculated for each of these three parameters if the level of activity is reached. However, if the effect is not reached or is exceeded, the value for that parameter is expressed as greater or less than the maximum or minimum concentration tested.

[2] = system: HCT-15; experiment: NCI screening panel, HCT-15 (Colon Cancer)
Description: as §1, §2, §3, §4

[3] = system: OVCAR-4; experiment: NCI screening panel, OVCAR-4 (Ovarian Cancer)
Description: as §1, §2, §3, §4

[4] = system: SK-OV-3; experiment: NCI screening panel, SK-OV-3 (Ovarian Cancer)
Description: as §1, §2, §3, §4

In the case of `CC(C)C[C@H](NC(=O)[C@H](COC(F)F)NC(=O)CN1CCOCC1)C(=O)N[C@@H](COC(F)F)C(=O)N[C@@H](CC(C)C)C(=O)[C@@]1(C)CO1` [Example 1, (2S)—N-[(1S)-1-(difluoromethoxymethyl)-2-[[(1S)-3-methyl-1-[(2R)-2-methyloxirane-2-carbonyl]butyl]amino]-2-oxo-ethyl]-2-[[(2S)-3-(difluoromethoxy)-2-[(2-morpholinoacetyl)amino]propanoyl]amino]-4-methyl-pentanamide], the Log10GI50 [1] is reported as −7.49, the Log10LC50 [1] is reported as over −4.00 and the Log10TGI50 [1] is reported as −6.30. For the same compound, the Log10GI50 [2] was −5.97, the Log10LC50 [2] was over −4.00 and the Log10TGI50 [2] was over −4.00. The Log10GI50 [3] was −7.77, the Log10LC50 [3] was over −4.00 and the Log10TGI50 [3] was −6.60. It also gave a Log10GI50 [4] of −7.15 and a Log10TGI50 [4] of −6.36.
In the case of `CC(C)C[C@H](NC(=O)[C@H](COC(F)F)NC(=O)CN1CCOCC1)C(=O)N[C@@H](Cc1ccccc1)C(=O)N[C@@H](CC(C)C)C(=O)[C@@]1(C)CO1` [Example 2, (2S)-N-[(1S)-1-benzyl-2-[[(1S)-3-methyl-1-[(2R)-2-methyloxirane-2-carbonyl]butyl]-amino]-2-oxo-ethyl]-2-[[(2S)-3-(difluoromethoxy)-2-[(2-morpholinoacetyl)amino]propanoyl]amino]-4-methyl-pentanamide], the Log10GI50 [1] is reported as −7.55, the Log10LC50 [1] is reported as over −4.00 and the Log10TGI50 [1] is reported as −6.11. The Log10GI50 [2] was −6.40, the Log10LC50 [2] was over −4.00 and the Log10TGI50 [2] was −4.66. It also gave a Log10GI50 [3] of −7.84, a Log10LC50 [3] of over −4.00 and a Log10TGI50 [3] of −6.49. It also gave a Log10GI50 [4] of −7.15, a Log10LC50 [4] of over −4.00 and a Log10TGI50 [4] of −6.21.
`CC(C)C[C@H](NC(=O)[C@H](COC(F)F)NC(=O)CN1CCOCC1)C(=O)N[C@@H](Cc1ccccc1)C(=O)N[C@@H](Cc1ccccc1)C(=O)[C@@]1(C)CO1` [Example 3, (2S)-N-[(1S)-1-benzyl-2-[[(1S)-1-benzyl-2-[(2R)-2-methyloxiran-2-yl]-2-oxo-ethyl]amino]-2-oxo-ethyl]-2-[[(2S)-3-(difluoromethoxy)-2-[(2-morpholinoacetyl)-amino]propanoyl]amino]-4-methyl-pentan-amide] gave a Log10GI50 [1] of −7.83, a Log10LC50 [1] of over −4.00 and a Log10TGI50 [1] of −6.67. For the same compound, the Log10GI50 [2] was −6.51, the Log10LC50 [2] was over −4.00 and the Log10TGI50 [2] was over −4.00. It also gave a Log10GI50 [3] of −7.88, a Log10TGI50 [3] of over −4.00 and a Log10GI50 [4] of −7.26. For the same compound, the Log10LC50 [4] was over −4.00 and the Log10TGI50 [4] was −6.16.
`CC(C)C[C@H](NC(=O)[C@H](COC(F)F)NC(=O)CN1CCOCC1)C(=O)N[C@@H](COC(F)F)C(=O)N[C@@H](Cc1ccccc1)C(=O)[C@@]1(C)CO1` [Example 4, (2S)-N-[(1S)-2-[[(1S)-1-benzyl-2-[(2R)-2-methyloxiran-2-yl]-2-oxo-ethyl]amino]-1-(difluoromethoxymethyl)-2-oxo-ethyl]-2-[[(2S)-3-(difluoromethoxy)-2-[(2-mor-pholinoacetyl)amino]propanoyl]amino]-4 methyl-pentanamide] was tested, and the Log10GI50 [1] was −7.44, the Log10LC50 [1] was over −4.00 and the Log10TGI50 [1] was −6.44. For the same compound, the Log10GI50 [2] was −5.91, the Log10LC50 [2] was over −4.00 and the Log10TGI50 [2] was −4.62. The Log10GI50 [3] was −7.43, the Log10LC50 [3] was over −4.00 and the Log10TGI50 [3] was −6.34. The Log10GI50 [4] was −6.84, the Log10LC50 [4] was over −4.00 and the Log10TGI50 [4] was −6.02.
In the case of `CC(C)C[C@H](NC(=O)[C@H](COC(F)F)NC(=O)[C@H](COC(F)F)NC(=O)[C@H](CCc1ccccc1)NC(=O)CN1CCOCC1)C(=O)[C@@]1(C)CO1` [Example 7, (2S)-N-[(1S)-1-(difluoromethoxymethyl)-2-[[(1S)-1-(difluoromethoxymethyl)-2-[[(1S)-3-methyl-1-[(2R)-2-methyloxirane-2-carbo-nyl]butyl]amino]-2-oxo-ethyl]amino]-2-oxo-ethyl]-2-[(2-morpholinoacetyl)amino]-4-phenyl-butanamide], the Log10GI50 [1] is reported as −7.46, the Log10LC50 [1] is reported as over −4.00 and the Log10TGI50 [1] is reported as −6.48. It also gave a Log10GI50 [2] of −5.89, a Log10LC50 [2] of over −4.00 and a Log10TGI50 [2] of over −4.00. It also gave a Log10GI50 [3] of −7.69, a Log10LC50 [3] of over −4.00 and a Log10TGI50 [3] of over −4.00. It also gave a Log10GI50 [4] of −6.94, a Log10LC50 [4] of over −4.00 and a Log10TGI50 [4] of −5.46.
`CC(C)C[C@H](NC(=O)[C@H](Cc1ccccc1)NC(=O)[C@H](COC(F)F)NC(=O)[C@H](COC(F)F)NC(=O)CN1CCOCC1)C(=O)[C@@]1(C)CO1` [Example 11, (2S)-2-[[(2S)-3-(difluoromethoxy)-2-[[(2S)-3-(difluoromethoxy)-2-[(2-morpholinoacetyl)-amino]propanoyl]amino]propanoyl]amino]-N-[(1S)-3-methyl-1-[(2R)-2-methyloxirane-2-carbonyl]butyl]-3-phenyl-propanamide] was tested, and the Log10GI50 [1] was −7.46, the Log10LC50 [1] was over −4.00 and the Log10TGI50 [1] was −6.42. For the same compound, the Log10GI50 [2] was −6.00, the Log10LC50 [2] was over −4.00 and the Log10TGI50 [2] was −4.42. The Log10GI50 [3] was −7.68, the Log10LC50 [3] was over −4.00 and the Log10TGI50 [3] was −5.69. The Log10GI50 [4] was −6.85, the Log10LC50 [4] was over −4.00 and the Log10TGI50 [4] was −4.84.
`CC(C)C[C@H](NC(=O)[C@H](COC(F)F)NC(=O)[C@H](COC(F)F)NC(=O)[C@H](COC(F)F)NC(=O)CN1CCOCC1)C(=O)[C@@]1(C)CO1` [Example 17, (2S)-3-(difluoromethoxy)-N-[(1S)-1-(difluoromethoxymethyl)-2-[[(1S)-1-(difluoro-methoxymethyl)-2-[[(1S)-3-methyl-1-[(2R)-2-methyloxirane-2-carbonyl]butyl]amino]-2-oxo-ethyl]amino]-2-oxo-ethyl]-2-[(2-mor-pholinoacetyl)amino]-propanamide] was tested, and the Log10GI50 [1] was −6.70, the Log10LC50 [1] was over −4.00 and the Log10TGI50 [1] was −5.87. For the same compound, the Log10GI50 [2] was −5.28, the Log10LC50 [2] was over −4.00 and the Log10TGI50 [2] was over −4.00. It also gave a Log10GI50 [3] of −7.23, a Log10LC50 [3] of over −4.00 and a Log10TGI50 [3] of −4.55. It also gave a Log10GI50 [4] of −6.26, a Log10LC50 [4] of over −4.00 and a Log10TGI50 [4] of over −4.00.
